{"source": "ChEMBL document CHEMBL1201862", "about": "“PubChem BioAssay data set” (2004)", "assay_in_all_cases": "DTP human tumour cell line panel, 48 h", "key": {"HCT-116": {"tested_on": "HCT-116"}, "HT-29": {"tested_on": "HT-29"}, "NCI-H460": {"tested_on": "NCI-H460"}, "M19-MEL": {"tested_on": "M19-MEL"}, "U-251": {"tested_on": "U-251"}, "OVCAR-8": {"tested_on": "OVCAR-8"}, "A498": {"tested_on": "A498"}, "OVCAR-4": {"tested_on": "OVCAR-4"}, "DMS-114": {"tested_on": "DMS-114"}, "M14": {"tested_on": "M14"}, "SF-268": {"tested_on": "SF-268"}, "ACHN": {"tested_on": "ACHN"}, "HL-60": {"tested_on": "HL-60"}, "HOP-62": {"tested_on": "HOP-62"}, "XF498": {"tested_on": "XF498"}, "SNB-75": {"tested_on": "SNB-75"}, "SF-295": {"tested_on": "SF-295"}, "DLD-1": {"tested_on": "DLD-1"}, "OVCAR-3": {"tested_on": "OVCAR-3"}, "EKVX": {"tested_on": "EKVX"}, "A549": {"tested_on": "A549"}, "SW-620": {"tested_on": "SW-620"}, "MOLT-4": {"tested_on": "MOLT-4"}, "NCI-H226": {"tested_on": "NCI-H226"}, "LOX IMVI": {"tested_on": "LOX IMVI"}, "UACC-62": {"tested_on": "UACC-62"}, "HCT-15": {"tested_on": "HCT-15"}, "KM-20L2": {"tested_on": "KM-20L2"}, "SR": {"tested_on": "SR"}, "TK-10": {"tested_on": "TK-10"}, "NCI-H23": {"tested_on": "NCI-H23"}, "HCC 2998": {"tested_on": "HCC 2998"}, "CCRF-CEM": {"tested_on": "CCRF-CEM"}, "786-0": {"tested_on": "786-0"}, "SK-MEL-28": {"tested_on": "SK-MEL-28"}, "SN12C": {"tested_on": "SN12C"}, "SK-MEL-2": {"tested_on": "SK-MEL-2"}, "DMS-273": {"tested_on": "DMS-273"}, "COLO 205": {"tested_on": "COLO 205"}, "K562": {"tested_on": "K562"}, "RPMI-8226": {"tested_on": "RPMI-8226"}, "RXF 393": {"tested_on": "RXF 393"}, "SF-539": {"tested_on": "SF-539"}, "UACC-257": {"tested_on": "UACC-257"}, "Malme-3M": {"tested_on": "Malme-3M"}, "SNB-19": {"tested_on": "SNB-19"}, "UO-31": {"tested_on": "UO-31"}, "SK-MEL-5": {"tested_on": "SK-MEL-5"}}, "note": "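Values below derive from 48-hour exposures of cells grown in 96-well plates, with endpoints linearly interpolated between the two concentrations bracketing the appropriate inhibition level. GI50 marks 50% less growth.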 Active and inactive are the calls of the source. No stated cut-off is given here; in the data, active = GI50 up to about 1.1 µM and inactive = higher.", "data": [{"smiles": "O=c1cc(-c2ccccc2)c2cc3c(=O)ccoc3cc2o1", "values": [{"measurement": "GI50", "setting": "HCT-116", "result": "> 100 µM (inactive)"}, {"measurement": "GI50", "setting": "HT-29", "result": "> 100 µM (inactive)"}, {"measurement": "GI50", "setting": "NCI-H460", "result": "> 100 µM (inactive)"}, {"measurement": "GI50", "setting": "M19-MEL", "result": "> 100 µM (inactive)"}, {"measurement": "GI50", "setting": "U-251", "result": "> 100 µM (inactive)"}, {"measurement": "GI50", "setting": "OVCAR-8", "result": "> 100 µM (inactive)"}, {"measurement": "GI50", "setting": "A498", "result": "15.7 µM (inactive)"}, {"measurement": "GI50", "setting": "OVCAR-4", "result": "> 100 µM (inactive)"}, {"measurement": "GI50", "setting": "DMS-114", "result": "83 µM (inactive)"}, {"measurement": "GI50", "setting": "M14", "result": "> 100 µM (inactive)"}, {"measurement": "GI50", "setting": "SF-268", "result": "> 100 µM (inactive)"}, {"measurement": "GI50", "setting": "ACHN", "result": "87.9 µM (inactive)"}, {"measurement": "GI50", "setting": "HL-60", "result": "> 100 µM (inactive)"}, {"measurement": "GI50", "setting": "HOP-62", "result": "80.4 µM (inactive)"}, {"measurement": "GI50", "setting": "XF498", "result": "> 100 µM (inactive)"}, {"measurement": "GI50", "setting": "SNB-75", "result": "14 µM (inactive)"}, {"measurement": "GI50", "setting": "SF-295", "result": "42.8 µM (inactive)"}, {"measurement": "GI50", "setting": "DLD-1", "result": "77.4 µM (inactive)"}, {"measurement": "GI50", "setting": "OVCAR-3", "result": "> 100 µM (inactive)"}, {"measurement": "GI50", "setting": "EKVX", "result": "> 100 µM (inactive)"}, {"measurement": "GI50", "setting": "A549", "result": "> 100 µM (inactive)"}, {"measurement": "GI50", "setting": "SW-620", "result": "> 100 µM (inactive)"}, {"measurement": "GI50", "setting": "MOLT-4", "result": "> 100 µM (inactive)"}, {"measurement": "GI50", "setting": "NCI-H226", "result": "79.1 µM (inactive)"}, {"measurement": "GI50", "setting": "LOX IMVI", "result": "> 100 µM (inactive)"}, {"measurement": "GI50", "setting": "UACC-62", "result": "62.2 µM (inactive)"}, {"measurement": "GI50", "setting": "HCT-15", "result": "> 100", "unit": "µM"}, {"measurement": "GI50", "setting": "KM-20L2", "result": "> 100 µM (inactive)"}, {"measurement": "GI50", "setting": "SR", "result": "> 100 µM (inactive)"}, {"measurement": "GI50", "setting": "TK-10", "result": "44.4 µM (inactive)"}, {"measurement": "GI50", "setting": "NCI-H23", "result": "> 100 µM (inactive)"}, {"measurement": "GI50", "setting": "HCC 2998", "result": "> 100 µM (inactive)"}, {"measurement": "GI50", "setting": "CCRF-CEM", "result": "48.1 µM (inactive)"}, {"measurement": "GI50", "setting": "786-0", "result": "> 100 µM (inactive)"}, {"measurement": "GI50", "setting": "SK-MEL-28", "result": "> 100 µM (inactive)"}, {"measurement": "GI50", "setting": "SN12C", "result": "> 100 µM (inactive)"}, {"measurement": "GI50", "setting": "SK-MEL-2", "result": "> 100 µM (inactive)"}, {"measurement": "GI50", "setting": "DMS-273", "result": "> 100 µM (inactive)"}, {"measurement": "GI50", "setting": "COLO 205", "result": "> 100 µM (inactive)"}, {"measurement": "GI50", "setting": "K562", "result": "> 100 µM (inactive)"}, {"measurement": "GI50", "setting": "RPMI-8226", "result": "> 100 µM (inactive)"}, {"measurement": "GI50", "setting": "RXF 393", "result": "20 µM (inactive)"}, {"measurement": "GI50", "setting": "SF-539", "result": "> 100 µM (inactive)"}, {"measurement": "GI50", "setting": "UACC-257", "result": "> 100 µM (inactive)"}, {"measurement": "GI50", "setting": "Malme-3M", "result": "81.5 µM (inactive)"}, {"measurement": "GI50", "setting": "SNB-19", "result": "64.4 µM (inactive)"}, {"measurement": "GI50", "setting": "UO-31", "result": "> 100 µM (inactive)"}, {"measurement": "GI50", "setting": "SK-MEL-5", "result": "43.7 µM (inactive)"}]}]}
